Data published in PMC6479915, “Novel Benzene-Based Carbamates for AChE/BChE Inhibition: Synthesis and Ligand/Structure-Oriented SAR Study” (International Journal of Molecular Sciences, 2019).

What was measured:
BChE from equine serum = target: T1, BChE from equine serum (Equus caballus, UniProt P81908); experiment: In vitro BChE inhibition, modified Ellman's method; type: biochemical; conditions: for SI (index selectivity) = IC50 (AChE)/IC50 (BChE): higher value = higher selectivity to BChE
T1 construct: BChE (from equine serum); purchased Sigma, St. Louis, MO, USA; host or cells: equine serum
T1 sequence (P81908 whole entry): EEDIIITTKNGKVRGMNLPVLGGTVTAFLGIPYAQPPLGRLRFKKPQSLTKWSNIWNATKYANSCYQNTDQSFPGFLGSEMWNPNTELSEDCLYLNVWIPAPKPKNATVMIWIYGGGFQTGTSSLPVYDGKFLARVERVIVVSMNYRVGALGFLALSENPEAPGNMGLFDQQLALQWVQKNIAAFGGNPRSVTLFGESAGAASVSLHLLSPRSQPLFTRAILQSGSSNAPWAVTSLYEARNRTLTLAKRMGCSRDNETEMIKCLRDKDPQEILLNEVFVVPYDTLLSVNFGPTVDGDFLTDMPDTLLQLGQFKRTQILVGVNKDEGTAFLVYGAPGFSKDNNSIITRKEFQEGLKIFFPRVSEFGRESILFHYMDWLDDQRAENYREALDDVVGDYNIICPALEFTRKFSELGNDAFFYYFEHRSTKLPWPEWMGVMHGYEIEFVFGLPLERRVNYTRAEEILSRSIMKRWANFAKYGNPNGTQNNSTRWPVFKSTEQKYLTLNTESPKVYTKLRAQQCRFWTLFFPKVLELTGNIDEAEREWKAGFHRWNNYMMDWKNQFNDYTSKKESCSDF

AChE from electric eel = target: T2, AChE from electric eel (Electrophorus electricus, UniProt O42275); experiment: biochemical; conditions: mean ± SD, n = three experiments; 25 °C, PBS pH 7.4, substrate ATCh 40 μM
T2 construct: purchased Sigma, St. Louis, MO, USA
T2 sequence (O42275 24-633): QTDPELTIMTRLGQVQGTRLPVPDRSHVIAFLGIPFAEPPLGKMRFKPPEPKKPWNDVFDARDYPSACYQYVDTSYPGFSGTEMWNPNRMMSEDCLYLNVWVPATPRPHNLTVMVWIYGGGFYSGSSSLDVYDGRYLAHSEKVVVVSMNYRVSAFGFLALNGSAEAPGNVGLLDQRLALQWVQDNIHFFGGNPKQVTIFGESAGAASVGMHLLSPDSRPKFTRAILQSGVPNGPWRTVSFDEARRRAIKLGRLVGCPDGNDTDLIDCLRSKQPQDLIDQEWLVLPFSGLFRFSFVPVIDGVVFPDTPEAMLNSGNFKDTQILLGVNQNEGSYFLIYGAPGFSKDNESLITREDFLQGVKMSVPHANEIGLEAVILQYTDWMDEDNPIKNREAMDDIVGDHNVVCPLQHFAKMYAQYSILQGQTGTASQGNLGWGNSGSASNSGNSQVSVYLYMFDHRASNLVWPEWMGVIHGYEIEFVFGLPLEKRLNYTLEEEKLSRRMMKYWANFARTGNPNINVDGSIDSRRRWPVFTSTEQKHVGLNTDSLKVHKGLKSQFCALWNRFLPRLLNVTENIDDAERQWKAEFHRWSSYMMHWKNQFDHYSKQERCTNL

COC(=O)N(C)C(C)C(=O)c1ccc(C)cc1 (stereo not drawn) [Compound 7, Methyl methyl(1-oxo-1-(p-tolyl)propan-2-yl)carbamate]
IC50 (BChE from equine serum): 181 ± 12 µM
SI (index selectivity) = IC50 (AChE)/IC50 (BChE) (BChE from equine serum): 0.28
IC50 (AChE from electric eel): 50.6 ± 0.63 µM

CCC(C(=O)c1ccccc1)N(C)C(=O)OC (stereo not drawn) [Compound 2, Methyl methyl(1-oxo-1-phenylbutan-2-yl)carbamate]
IC50 (BChE from equine serum): 441 ± 7.54 µM
SI (index selectivity) = IC50 (AChE)/IC50 (BChE) (BChE from equine serum): 0.75
IC50 (AChE from electric eel): 329 ± 9.72 µM

COC(=O)N(C)C(C)C(=O)c1cccc(Cl)c1 (stereo not drawn) [Compound 5, Methyl (1-(3-chlorophenyl)-1-oxopropan-2-yl)(methyl)carbamate]
IC50 (BChE from equine serum): 113.6 ± 0.29 µM
SI (index selectivity) = IC50 (AChE)/IC50 (BChE) (BChE from equine serum): 2.90
IC50 (AChE from electric eel): 330 ± 42.1 µM

CCC(C(=O)c1ccccc1)N(CC)C(=O)Oc1ccccc1 (stereo not drawn) [Compound 13, Phenyl ethyl(1-oxo-1-phenylbutan-2-yl)carbamate]
IC50 (BChE from equine serum): 15.62 ± 0.06 µM
SI (index selectivity) = IC50 (AChE)/IC50 (BChE) (BChE from equine serum): 6.13
IC50 (AChE from electric eel): 95.7 ± 5.37 µM

CC(C(=O)c1ccc(Cl)c2ccccc12)N(C)C(=O)Oc1ccccc1 (stereo not drawn) [Compound 37, Phenyl (1-(4-chloronaphthalen-1-yl)-1-oxopropan-2-yl)(methyl)carbamate]
IC50 (BChE from equine serum): 13.5 ± 0.47 µM
SI (index selectivity) = IC50 (AChE)/IC50 (BChE) (BChE from equine serum): 2.26
IC50 (AChE from electric eel): 30.6 ± 1.57 µM

CC(C(=O)c1cccc(Cl)c1)N(C)C(=O)Oc1ccccc1 (stereo not drawn) [Compound 16, Phenyl (1-(3-chlorophenyl)-1-oxopropan-2-yl)(methyl)carbamate]
IC50 (BChE from equine serum): 14.81 ± 0.01 µM
SI (index selectivity) = IC50 (AChE)/IC50 (BChE) (BChE from equine serum): 7.35
IC50 (AChE from electric eel): 109 ± 1.1 µM

CC(C(=O)c1ccc2c(c1)OCO2)N(C)C(=O)OCc1ccccc1 (stereo not drawn) [Compound 34, Benzyl (1-(benzo[d][1,3]dioxol-5-yl)-1-oxopropan-2-yl)(methyl)carbamate]
IC50 (BChE from equine serum): 51.9 ± 1.18 µM
SI (index selectivity) = IC50 (AChE)/IC50 (BChE) (BChE from equine serum): 1.46
IC50 (AChE from electric eel): 75.6 ± 1.25 µM

Cc1ccc(C(=O)C(C)N(C)C(=O)OCc2ccccc2)cc1 (stereo not drawn) [Compound 30, Benzyl methyl(1-oxo-1-(p-tolyl)propan-2-yl)carbamate]
IC50 (BChE from equine serum): 26.4 ± 0.4 µM
SI (index selectivity) = IC50 (AChE)/IC50 (BChE) (BChE from equine serum): 1.52
IC50 (AChE from electric eel): 40.06 ± 0.01 µM

COC(=O)N(C)C(C)C(=O)c1cccc(C)c1 (stereo not drawn) [Compound 4, Methyl methyl(1-oxo-1-(m-tolyl)propan-2-yl)carbamate]
IC50 (BChE from equine serum): 116 ± 2.16 µM
SI (index selectivity) = IC50 (AChE)/IC50 (BChE) (BChE from equine serum): 1.16
IC50 (AChE from electric eel): 134 ± 2.3 µM

CCC(C(=O)c1ccccc1)N(C)C(=O)OCc1ccccc1 (stereo not drawn) [Compound 24, Benzyl methyl(1-oxo-1-phenylbutan-2-yl)carbamate]
IC50 (BChE from equine serum): 21.4 ± 0.26 µM
SI (index selectivity) = IC50 (AChE)/IC50 (BChE) (BChE from equine serum): 4.87
IC50 (AChE from electric eel): 104 ± 2.91 µM

COC(=O)N(C)C(C)C(=O)c1ccc(OC)cc1 (stereo not drawn) [Compound 6, Methyl (1-(4-methoxyphenyl)-1-oxopropan-2-yl)(methyl)carbamate]
IC50 (BChE from equine serum): 186.6 ± 1.55 µM
SI (index selectivity) = IC50 (AChE)/IC50 (BChE) (BChE from equine serum): 0.79
IC50 (AChE from electric eel): 147 ± 1.51 µM

CC(C(=O)c1ccc(Cl)cc1)N(C)C(=O)Oc1ccccc1 (stereo not drawn) [Compound 19, Phenyl (1-(4-chlorophenyl)-1-oxopropan-2-yl)(methyl)carbamate]
IC50 (BChE from equine serum): 38.96 ± 0.28 µM
SI (index selectivity) = IC50 (AChE)/IC50 (BChE) (BChE from equine serum): 1.14
IC50 (AChE from electric eel): 44.2 ± 2.35 µM

Cc1ccc(C(=O)C(C)N(C)C(=O)Oc2ccccc2)cc1C (stereo not drawn) [Compound 21, Phenyl (1-(3,4-dimethylphenyl)-1-oxopropan-2-yl)(methyl)carbamate]
IC50 (BChE from equine serum): 26.41 ± 0.05 µM
SI (index selectivity) = IC50 (AChE)/IC50 (BChE) (BChE from equine serum): 1.82
IC50 (AChE from electric eel): 47.9 ± 2.09 µM
